Experimental data from PubChem BioAssay AID1259407 (Chemical Carcinogenesis Research Information System (CCRIS), 2018).
Active and inactive are the calls of the source. How the calls were made is not given here.

Test system: CCRIS mutagenicity, Ames/micronucleus/aberration tests
Assay: CCRIS mutagenicity studies

Measured: mutagenic call

Cl/C=C\Cl
inactive: End Point: IN VITRO CHROMOSOMAL ABERRATIONS, Test System: CHINESE HAMSTER LUNG (CHL), Metabolic Activation: NONE inactive; negative | End Point: IN VITRO CHROMOSOMAL ABERRATIONS, Test System: CHINESE HAMSTER LUNG (CHL), Metabolic Activation: RAT. LIVER, S-9, KC-400 inactive; negative | Test System: AMES SALMONELLA TYPHIMURIUM, Strain/Indicator: TA97, Metabolic Activation: HAMSTER LIVER S-9, AROCLOR 1254 (10%), Method: PREINCUBATION inactive; negative | Test System: AMES SALMONELLA TYPHIMURIUM, Strain/Indicator: TA97, Metabolic Activation: HAMSTER LIVER S-9, AROCLOR 1254 (30%), Method: PREINCUBATION inactive; negative | Test System: AMES SALMONELLA TYPHIMURIUM, Strain/Indicator: TA97, Metabolic Activation: HAMSTER, LIVER, S-9, AROCLOR 1254 (10%), Method: PREINCUBATION inactive; negative | Test System: AMES SALMONELLA TYPHIMURIUM, Strain/Indicator: TA97, Metabolic Activation: HAMSTER, LIVER, S-9, AROCLOR 1254 (30%), Method: PREINCUBATION inactive; negative | Test System: AMES SALMONELLA TYPHIMURIUM, Strain/Indicator: TA97, Metabolic Activation: NONE, Method: PREINCUBATION inactive; negative | Test System: AMES SALMONELLA TYPHIMURIUM, Strain/Indicator: TA97, Metabolic Activation: RAT LIVER S-9, AROCLOR 1254 (10% OR 30%), Method: PREINCUBATION inactive; negative | Test System: AMES SALMONELLA TYPHIMURIUM, Strain/Indicator: TA97, Metabolic Activation: RAT, LIVER, S-9, AROCLOR 1254 (10 OR 30%), Method: PREINCUBATION inactive; negative | Test System: AMES SALMONELLA TYPHIMURIUM, Strain/Indicator: TA98, Metabolic Activation: HAMSTER LIVER S-9, AROCLOR 1254 (10%), Method: PREINCUBATION inactive; negative | Test System: AMES SALMONELLA TYPHIMURIUM, Strain/Indicator: TA98, Metabolic Activation: HAMSTER LIVER S-9, AROCLOR 1254 (30%), Method: PREINCUBATION inactive; negative | Test System: AMES SALMONELLA TYPHIMURIUM, Strain/Indicator: TA98, Metabolic Activation: HAMSTER, LIVER, S-9, AROCLOR 1254 (10%), Method: PREINCUBATION inactive; negative | Test System: AMES SALMONELLA TYPHIMURIUM, Strain/Indicator: TA98, Metabolic Activation: HAMSTER, LIVER, S-9, AROCLOR 1254 (30%), Method: PREINCUBATION inactive; negative | Test System: AMES SALMONELLA TYPHIMURIUM, Strain/Indicator: TA98, Metabolic Activation: NONE, Method: PREINCUBATION inactive; negative | Test System: AMES SALMONELLA TYPHIMURIUM, Strain/Indicator: TA98, Metabolic Activation: RAT LIVER S-9, AROCLOR 1254 (10% OR 30%), Method: PREINCUBATION inactive; negative | Test System: AMES SALMONELLA TYPHIMURIUM, Strain/Indicator: TA98, Metabolic Activation: RAT, LIVER, S-9, AROCLOR 1254 (10 OR 30%), Method: PREINCUBATION inactive; negative | Test System: AMES SALMONELLA TYPHIMURIUM, Strain/Indicator: TA100, Metabolic Activation: HAMSTER LIVER S-9, AROCLOR 1254 (10%), Method: PREINCUBATION inactive; negative | Test System: AMES SALMONELLA TYPHIMURIUM, Strain/Indicator: TA100, Metabolic Activation: HAMSTER LIVER S-9, AROCLOR 1254 (30%), Method: PREINCUBATION inactive; negative | Test System: AMES SALMONELLA TYPHIMURIUM, Strain/Indicator: TA100, Metabolic Activation: HAMSTER, LIVER, S-9, AROCLOR 1254 (10%), Method: PREINCUBATION inactive; negative | Test System: AMES SALMONELLA TYPHIMURIUM, Strain/Indicator: TA100, Metabolic Activation: HAMSTER, LIVER, S-9, AROCLOR 1254 (30%), Method: PREINCUBATION inactive; negative | Test System: AMES SALMONELLA TYPHIMURIUM, Strain/Indicator: TA100, Metabolic Activation: NONE, Method: PREINCUBATION inactive; negative | Test System: AMES SALMONELLA TYPHIMURIUM, Strain/Indicator: TA100, Metabolic Activation: RAT LIVER S-9, AROCLOR 1254 (10% OR 30%), Method: PREINCUBATION inactive; negative | Test System: AMES SALMONELLA TYPHIMURIUM, Strain/Indicator: TA100, Metabolic Activation: RAT, LIVER, S-9, AROCLOR 1254 (10 OR 30%), Method: PREINCUBATION inactive; negative | Test System: AMES SALMONELLA TYPHIMURIUM, Strain/Indicator: TA1535, Metabolic Activation: HAMSTER LIVER S-9, AROCLOR 1254 (10%), Method: PREINCUBATION inactive; negative | Test System: AMES SALMONELLA TYPHIMURIUM, Strain/Indicator: TA1535, Metabolic Activation: HAMSTER, LIVER, S-9, AROCLOR 1254 (10%), Method: PREINCUBATION inactive; negative | Test System: AMES SALMONELLA TYPHIMURIUM, Strain/Indicator: TA1535, Metabolic Activation: HAMSTER, LIVER, S-9, AROCLOR 1254 (30%), Method: PREINCUBATION inactive; negative | Test System: AMES SALMONELLA TYPHIMURIUM, Strain/Indicator: TA1535, Metabolic Activation: NONE, Method: PREINCUBATION inactive; negative | Test System: AMES SALMONELLA TYPHIMURIUM, Strain/Indicator: TA1535, Metabolic Activation: RAT LIVER S-9, AROCLOR 1254 (10% OR 30%), Method: PREINCUBATION inactive; negative | Test System: AMES SALMONELLA TYPHIMURIUM, Strain/Indicator: TA1535, Metabolic Activation: RAT, LIVER, S-9, AROCLOR 1254 (10 OR 30%), Method: PREINCUBATION inactive; negative | Test System: AMES SALMONELLA TYPHIMURIUM, Strain/Indicator: TA1537, Metabolic Activation: HAMSTER LIVER S-9, AROCLOR 1254 (30%), Method: PREINCUBATION inactive; negative | Test System: AMES SALMONELLA TYPHIMURIUM, Strain/Indicator: TA1537, Metabolic Activation: HAMSTER, LIVER, S-9, AROCLOR 1254 (30%), Method: PREINCUBATION inactive; negative | Test System: AMES SALMONELLA TYPHIMURIUM, Strain/Indicator: TA1537, Metabolic Activation: NONE, Method: PREINCUBATION inactive; negative | Test System: AMES SALMONELLA TYPHIMURIUM, Strain/Indicator: TA1537, Metabolic Activation: RAT LIVER S-9, AROCLOR 1254 (30%), Method: PREINCUBATION inactive; negative | Test System: AMES SALMONELLA TYPHIMURIUM, Strain/Indicator: TA1537, Metabolic Activation: RAT, LIVER, S-9, AROCLOR 1254 (30%), Method: PREINCUBATION inactive; negative

O=[N+]([O-])c1c2c(cc3ccccc13)C=C[C@@H](O)[C@@H]2O
inactive: Test System: AMES SALMONELLA TYPHIMURIUM, Strain/Indicator: TA98, Metabolic Activation: NONE, Method: STANDARD PLATE inactive; negative | Test System: AMES SALMONELLA TYPHIMURIUM, Strain/Indicator: TA98, Metabolic Activation: RAT, LIVER, S-9, Method: STANDARD PLATE inactive; negative | Test System: AMES SALMONELLA TYPHIMURIUM, Strain/Indicator: TA100, Metabolic Activation: NONE, Method: STANDARD PLATE inactive; negative | Test System: AMES SALMONELLA TYPHIMURIUM, Strain/Indicator: TA100, Metabolic Activation: RAT, LIVER, S-9, Method: STANDARD PLATE inactive; negative

O=C1c2c(O)cc(O)cc2O[C@H](c2ccc(O)c(O)c2)[C@H]1O
inactive: Test System: Ames Salmonella typhimurium, Strain/Indicator: TA102, Metabolic Activation: Fe ++ (1 uM) with NADPH generating system, Method: Preincubation inactive; negative | Test System: Ames Salmonella typhimurium, Strain/Indicator: TA102, Metabolic Activation: None, Method: Preincubation inactive; negative | Test System: Ames Salmonella typhimurium, Strain/Indicator: TA102, Metabolic Activation: Rat, Liver, S-9, Aroclor 1254, Method: Preincubation inactive; negative | Test System: Ames Salmonella typhimurium, Strain/Indicator: TA102, Metabolic Activation: Rat, Liver, S-9, Aroclor 1254 in 0.154 M KCl, Method: Preincubation inactive; negative | Test System: E. coli, Strain/Indicator: WP2 uvrA, Metabolic Activation: Fe ++ (1 uM) with NADPH generating system, Method: Preincubation inactive; negative. authors say results are positive at 100 and 250 um but results are bar | Test System: E. coli, Strain/Indicator: WP2 uvrA, Metabolic Activation: None, Method: Preincubation inactive; negative | Test System: E. coli, Strain/Indicator: WP2 uvrA, Metabolic Activation: Rat, Liver, S-9, Aroclor 1254, Method: Preincubation inactive; negative
